Data as given in the NIST ThermoML archive (doi:10.1016/j.jct.2004.11.017).
Numbers after ± are expanded uncertainties.

Experiment: xn = mol fraction of the nth substance listed
Settings: 101 kPa, Liquid

Compound: CC[S+]([O-])CC [diethyl sulfoxide] + O
- mass density (323.15 K, x1 = 0.0997): 1009.6 ± 1.4 kg/m3
- mass density (323.15 K, x1 = 0.1996): 1016.3 ± 1.5 kg/m3
- mass density (323.15 K, x1 = 0.2517): 1015.8 ± 1.5 kg/m3
- mass density (323.15 K, x1 = 0.2978): 1015 ± 1.5 kg/m3
- mass density (323.15 K, x1 = 0.3481): 1013 ± 1.5 kg/m3
- mass density (323.15 K, x1 = 0.3946): 1012 ± 1.5 kg/m3
- mass density (323.15 K, x1 = 0.4496): 1009.2 ± 1.4 kg/m3
- mass density (323.15 K, x1 = 0.5053): 1007.1 ± 1.4 kg/m3
- mass density (323.15 K, x1 = 0.5962): 1004.2 ± 1.4 kg/m3
- mass density (323.15 K, x1 = 0.6971): 999.8 ± 1.3 kg/m3
- mass density (323.15 K, x1 = 0.8061): 996.4 ± 1.3 kg/m3
- mass density (323.15 K, x1 = 0.8946): 993.5 ± 1.4 kg/m3
- mass density (323.15 K, x1 = 1): 988.2 ± 1.5 kg/m3
- mass density (328.15 K, x1 = 0.0997): 1005.8 ± 1.4 kg/m3
- mass density (328.15 K, x1 = 0.1996): 1011.8 ± 1.5 kg/m3
- mass density (328.15 K, x1 = 0.2517): 1011.2 ± 1.5 kg/m3
- mass density (328.15 K, x1 = 0.2978): 1010.3 ± 1.5 kg/m3
- mass density (328.15 K, x1 = 0.3481): 1008.3 ± 1.4 kg/m3
- mass density (328.15 K, x1 = 0.3946): 1007.3 ± 1.4 kg/m3
- mass density (328.15 K, x1 = 0.4496): 1004.5 ± 1.4 kg/m3
- mass density (328.15 K, x1 = 0.5053): 1002.5 ± 1.3 kg/m3
- mass density (328.15 K, x1 = 0.5962): 999.6 ± 1.3 kg/m3
- mass density (328.15 K, x1 = 0.6971): 995.3 ± 1.4 kg/m3
- mass density (328.15 K, x1 = 0.8061): 991.9 ± 1.4 kg/m3
- mass density (328.15 K, x1 = 0.8946): 989.1 ± 1.5 kg/m3
- mass density (328.15 K, x1 = 1): 983.9 ± 1.5 kg/m3
- mass density (333.15 K, x1 = 0.0997): 1001.8 ± 1.3 kg/m3
- mass density (333.15 K, x1 = 0.1996): 1005.9 ± 1.4 kg/m3
- mass density (333.15 K, x1 = 0.2517): 1006.4 ± 1.4 kg/m3
- mass density (333.15 K, x1 = 0.2978): 1005.6 ± 1.4 kg/m3
- mass density (333.15 K, x1 = 0.3481): 1003.6 ± 1.3 kg/m3
- mass density (333.15 K, x1 = 0.3946): 1002.6 ± 1.3 kg/m3
- mass density (333.15 K, x1 = 0.4496): 999.9 ± 1.3 kg/m3
- mass density (333.15 K, x1 = 0.5053): 997.9 ± 1.3 kg/m3
- mass density (333.15 K, x1 = 0.5962): 995 ± 1.4 kg/m3
- mass density (333.15 K, x1 = 0.6971): 990.8 ± 1.4 kg/m3
- mass density (333.15 K, x1 = 0.8061): 987.4 ± 1.5 kg/m3
- mass density (333.15 K, x1 = 0.8946): 984.7 ± 1.5 kg/m3
- mass density (333.15 K, x1 = 1): 979.5 ± 1.6 kg/m3
- mass density (338.15 K, x1 = 0.0997): 997.8 ± 1.3 kg/m3
- mass density (338.15 K, x1 = 0.1996): 1001.3 ± 1.3 kg/m3
- mass density (338.15 K, x1 = 0.2517): 1001.7 ± 1.3 kg/m3
- mass density (338.15 K, x1 = 0.2978): 1000.8 ± 1.3 kg/m3
- mass density (338.15 K, x1 = 0.3481): 998.9 ± 1.3 kg/m3
- mass density (338.15 K, x1 = 0.3946): 997.8 ± 1.3 kg/m3
- mass density (338.15 K, x1 = 0.4496): 995.2 ± 1.4 kg/m3
- mass density (338.15 K, x1 = 0.5053): 993.2 ± 1.4 kg/m3
- mass density (338.15 K, x1 = 0.5962): 990.4 ± 1.4 kg/m3
- mass density (338.15 K, x1 = 0.6971): 986.2 ± 1.5 kg/m3
- mass density (338.15 K, x1 = 0.8061): 982.9 ± 1.6 kg/m3
- mass density (338.15 K, x1 = 0.8946): 980.2 ± 1.6 kg/m3
- mass density (338.15 K, x1 = 1): 975.1 ± 1.7 kg/m3
- mass density (343.15 K, x1 = 0.0997): 993.7 ± 1.4 kg/m3
- mass density (343.15 K, x1 = 0.1996): 997.1 ± 1.3 kg/m3
- mass density (343.15 K, x1 = 0.2517): 996.9 ± 1.3 kg/m3
- mass density (343.15 K, x1 = 0.2978): 996 ± 1.4 kg/m3
- mass density (343.15 K, x1 = 0.3481): 994.1 ± 1.4 kg/m3
- mass density (343.15 K, x1 = 0.3946): 993 ± 1.4 kg/m3
- mass density (343.15 K, x1 = 0.4496): 990.5 ± 1.4 kg/m3
- mass density (343.15 K, x1 = 0.5053): 988.5 ± 1.5 kg/m3
- mass density (343.15 K, x1 = 0.5962): 985.7 ± 1.5 kg/m3
- mass density (343.15 K, x1 = 0.6971): 981.7 ± 1.6 kg/m3
- mass density (343.15 K, x1 = 0.8061): 978.4 ± 1.6 kg/m3
- mass density (343.15 K, x1 = 0.8946): 975.7 ± 1.7 kg/m3
- mass density (343.15 K, x1 = 1): 970.6 ± 1.8 kg/m3
